Test [1] concerns Mus musculus. The test can be described thus: Antagonistic activity against scopolamine-induced behavioral deficits in mice by subcutaneous administration at a concentration of 5.0 mg/kg. In kind it is functional.
Test [2] relates to Mus musculus. The test can be described thus: Antagonistic activity against scopolamine-induced behavioral deficits in mice by subcutaneous administration at a concentration of 0.16 mg/kg. Type of test: functional.
In a further test the target is T1, Acetylcholinesterase (Rattus norvegicus, UniProt P37136).
T1 sequence (P37136 whole entry): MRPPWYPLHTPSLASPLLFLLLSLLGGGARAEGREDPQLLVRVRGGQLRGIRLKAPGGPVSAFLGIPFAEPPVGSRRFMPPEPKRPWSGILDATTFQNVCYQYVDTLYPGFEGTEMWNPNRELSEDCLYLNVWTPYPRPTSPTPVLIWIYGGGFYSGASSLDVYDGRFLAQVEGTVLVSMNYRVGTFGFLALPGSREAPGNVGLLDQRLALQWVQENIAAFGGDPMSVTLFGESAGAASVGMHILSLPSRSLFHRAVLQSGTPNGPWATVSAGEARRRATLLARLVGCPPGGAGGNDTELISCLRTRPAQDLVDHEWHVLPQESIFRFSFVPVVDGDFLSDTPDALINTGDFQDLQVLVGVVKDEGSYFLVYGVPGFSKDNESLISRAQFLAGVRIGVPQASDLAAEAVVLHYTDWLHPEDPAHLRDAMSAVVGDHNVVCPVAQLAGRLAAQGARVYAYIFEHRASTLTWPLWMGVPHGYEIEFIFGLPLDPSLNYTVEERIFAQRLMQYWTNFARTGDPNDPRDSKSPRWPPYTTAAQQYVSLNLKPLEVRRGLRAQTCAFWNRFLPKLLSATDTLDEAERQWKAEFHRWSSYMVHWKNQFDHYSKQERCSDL
Description: In vitro inhibition of Acetylcholinesterase from rat striatum.

For test [3], the species on record is Rattus norvegicus. The test can be described thus: Compound was tested for inhibition of [3H]norepinephrine against rat whole brain using in vitro biogenic amine uptake assay using rat brain synaptosomes. Type of test: functional.
In test [4] the target is T2, Muscarinic acetylcholine receptor M1 (Rattus norvegicus, UniProt P08482).
T2 sequence (P08482 whole entry): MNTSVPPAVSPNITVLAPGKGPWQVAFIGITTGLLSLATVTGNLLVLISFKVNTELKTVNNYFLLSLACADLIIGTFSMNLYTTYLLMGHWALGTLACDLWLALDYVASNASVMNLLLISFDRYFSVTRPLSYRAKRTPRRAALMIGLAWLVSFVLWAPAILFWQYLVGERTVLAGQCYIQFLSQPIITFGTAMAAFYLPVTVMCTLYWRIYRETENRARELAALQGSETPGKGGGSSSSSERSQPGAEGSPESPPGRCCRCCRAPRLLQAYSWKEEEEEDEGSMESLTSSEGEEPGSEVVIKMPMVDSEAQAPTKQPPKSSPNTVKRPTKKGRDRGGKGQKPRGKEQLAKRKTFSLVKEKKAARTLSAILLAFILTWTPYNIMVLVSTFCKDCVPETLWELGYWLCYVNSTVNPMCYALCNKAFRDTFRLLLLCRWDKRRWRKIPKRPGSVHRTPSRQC
The test can be described thus: Compound was tested for inhibition of [3H]pirenzepine binding against Muscarinic acetylcholine receptor M1 from rat cortical membranes using in vitro cholinergic receptor binding assay. Type of test: cell membranes, Membrane.

Test [5] has as its system Mus musculus. Description: Antagonistic activity against scopolamine-induced behavioral deficits in mice by subcutaneous administration at a concentration of 0.63 mg/kg. In kind it is functional.
The subject of test [6] is Mus musculus. The test can be described thus: Antagonistic activity against scopolamine-induced behavioral deficits in mice by subcutaneous administration at a concentration of 2.5 mg/kg. Type of test: functional.
Test [7] deals with Muscarinic acetylcholine receptor. Description: Inhibition of radioligand [3H]QNB binding to muscarinic acetylcholine receptor in the rat forebrain in the presence of zinc.
Test [8] has the same target. Description: Inhibition of radioligand [3H]QNB binding (competitive inhibition) to muscarinic acetylcholine receptor in the rat forebrain in the absence of zinc.
Test [9] relates to Mus musculus. The test can be described thus: Antagonistic activity against scopolamine-induced behavioral deficits in mice by subcutaneous administration at a concentration of 1.25 mg/kg. In kind it is functional.
For test [10], the system named is Mus musculus. The test can be described thus: Antagonistic activity against scopolamine-induced behavioral deficits in mice by subcutaneous administration at a concentration of 0.31 mg/kg. In kind it is functional.
The species entered for test [11] is Rattus norvegicus. The test can be described thus: Compound was tested for inhibition of [3H]dopamine against rat striatum using in vitro biogenic amine uptake assay using rat brain synaptosomes. Type of test: functional.
Test [12] has as its system Mus musculus. Description: Evaluated for the prevention of TBZ ptosis by intraperitoneal administration in mice. The settings on record: ip. Type of test: functional.

Consider `C=Cc1cccn1N(C)c1ccncc1`, for which the Response is given as 20% in the test on Mus musculus [1]; 27% in the test on Mus musculus [2]; 33% in the test with Mus musculus [5]; 27% in the test on Mus musculus [6]; 33% in the test on Mus musculus [9]; 33% in the test with Mus musculus [10]. The IC50 is above 100 µM at Acetylcholinesterase; 14 µM in the test filed under Rattus norvegicus [3]; 5.1 µM in [4]; 18 µM in test [7]; 8.8 µM in test [8]; above 20 µM in the test listed under Rattus norvegicus [11]. This compound also returned an ED50 in the test on Mus musculus [12] of 8.3 mg/kg.

The record behind these values is ChEMBL document CHEMBL1129671, “Substituted (pyrroloamino)pyridines: potential agents for the treatment of Alzheimer's disease” (J Med Chem, 1996).
